In ChEMBL document CHEMBL5137105, “Tricyclic Carboxamide Derivatives as PRMT5 Inhibitors for Treating Cancer” (ACS Med Chem Lett, 2022):

Assay: Antiproliferative activity against human HCT116-MTAP null cells assessed as reduction in cell viability incubated for 6 days by CellTiter-Glo luminescent assay
Assay type: functional, cell-based
Details: 144 h

| Structure (SMILES) | IC50 [nM] |
| --- | --- |
| Cn1cc(N(Cc2ccc(C(F)(F)F)cn2)C(=O)c2cc3c4c(c(N)nc3cc2Cl)COC4)cn1 | 6 |
| C[C@H](c1ncccn1)N(Cc1ccc(C(F)(F)F)cn1)C(=O)c1ccc2nc(N)c3c(c2c1)CCC3 | 6 |
| Cn1ncc2c(N)nc3cc(F)c(C(=O)N(Cc4ccc(C(F)(F)F)cn4)C4CCC4)cc3c21 | 5 |
| C[C@H](c1ncccn1)N(Cc1ccc(C#N)c(Cl)n1)C(=O)c1ccc2nc(N)c3c(c2c1)COC3 | 5 |
| Cn1cc(N(Cc2ccc(C(F)(F)F)cn2)C(=O)c2cc3c(cc2F)nc(N)c2cnn(C)c23)cn1 | 5 |
| CC1OCc2c1c(N)nc1ccc(C(=O)N(Cc3ccc(C(F)(F)F)cn3)Cc3ccnc4[nH]ccc34)cc21 (stereo unspecified) | 6 |
